In the test the target is T1, GLP-2R (Rattus norvegicus, UniProt Q9Z0W0).
T1 construct: the described assay enables native GLP-2R characterization by the direct application of GLP-2 to intestinal tissue segments ex vivo; from tissue; host or cells: colon segments of male Sprague-Dawley rats
T1 sequence (Q9Z0W0 1-550): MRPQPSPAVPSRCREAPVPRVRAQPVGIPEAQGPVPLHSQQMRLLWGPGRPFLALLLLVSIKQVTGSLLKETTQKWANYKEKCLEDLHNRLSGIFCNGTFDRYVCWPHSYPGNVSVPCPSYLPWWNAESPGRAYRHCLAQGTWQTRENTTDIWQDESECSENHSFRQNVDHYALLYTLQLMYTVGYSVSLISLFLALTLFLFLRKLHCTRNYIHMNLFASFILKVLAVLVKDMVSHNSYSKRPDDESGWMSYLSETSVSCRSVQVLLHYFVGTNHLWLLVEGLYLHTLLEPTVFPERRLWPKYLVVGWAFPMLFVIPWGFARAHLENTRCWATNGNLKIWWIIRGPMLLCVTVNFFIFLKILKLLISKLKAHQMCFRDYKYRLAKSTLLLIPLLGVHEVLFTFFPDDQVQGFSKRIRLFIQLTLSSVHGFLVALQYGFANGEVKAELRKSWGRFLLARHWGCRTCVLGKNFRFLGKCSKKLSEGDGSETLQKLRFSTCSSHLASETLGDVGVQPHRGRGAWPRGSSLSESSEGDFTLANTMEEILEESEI
In words: Ex vivo organ bath assay of spontaneous contractility of rat colon segments. Particulars: for effect on spontaneous colon contractility: substance alone; for IC50: rat colon segments. The procedure:
Segments of colon from male Sprague Dawley rats were suspended in organ bath chambers containing Krebs' solution and maintained at 37° C. with 95% O2 and 5% CO2. Basal tone, contractility rate and peak height were used to measure the properties of spontaneous and ligand-mediated colonic contractions. Segments were initially loaded to a tension of 2 g and allowed to equilibrate for 60 minutes. During this period, segments were repeatedly washed every 10 minutes. [gly2]GLP-2 (“Teduglutide”, a GLP-2 agonist) and GLP-2 analogues were subsequently incubated with each tissue segment for 5 to 10 minutes. The tissues were allowed to re-equilibrate with repeated washes following each experiment.
Male Sprague-Dawley (SD) rats (Charles River Canada, Quebec), weighing 200-250 g, were used for these studies. The animals were housed on contact bedding and kept with free access to food (Purina Rodent Diet) and water in a facility with regulated temperature and humidity, under an alternate 12-hour light/dark cycle. Animals were acclimatized for 3˜5 days prior to harvesting of tissues.
Rats were euthanized by decapitation. The entire intestine was quickly removed and placed in a Petri dish containing a Sylgard layer and 37° C. Krebs' solution bubbled with 95% O2 and 5% CO2. The Krebs' solution (pH 7.4) contained 118.1 mM NaCl, 25 mM NaHCO3, 4.7 mM KCl, 1.2 mM KH2PO4, 1.2 mM MgSO4.7H2O, 2.5 mM CaCl2.2H2O and 11 mM glucose. The colon was isolated, cleaned of superficial fat and mesentery and sectioned into eight 1-cm long segments. The lumen was cleaned by carefully flushing each segment with Krebs' solution using plastic transfer pipets. Segments were transferred to a separate Petri dish containing fresh Krebs' solution and suture threads were tied to both ends of each segment. Tissues were suspended longitudinally using surgical suture, one end attached to the transducer on the top and the other to the tissue holder at the bottom of 20 ml organ bath chambers containing Krebs' solution, maintained at 37° C. with 95% O2 and 5% CO2. Isometric tensions were continuously measured using calibrated force displacement transducers and data was collected and processed by the MP100WSW system with AcqKnowledge software
Segments of colon were initially loaded to a tension of 2 g and allowed to equilibrate for a 60 min period. During this period, segments were washed with Krebs' solution at 10 minutes intervals. When the tissues obtained regular and stable contraction patterns, GLP-2 agonist response experiments were conducted by the addition of eight concentrations of compound into eight separate organ baths for 5-10 minutes. Routinely, one-hour washes were interspersed between repeat applications of compounds to allow for recovery. The effect of GLP-2(3-33) on GLP-2 agonist analogues were conducted by pre-incubating colon segments with 1 or 10 uM GLP-2(3-33) for 5-10 minutes. Then agonist responses were measured at various concentrations as described above.
Tension was measured by changes in peak height. Data were calculated and expressed as percentage response relative to the basal level (prior to the experiment). Graphs and IC50 determinations were plotted by the percentage response in GraphPad Prism (v 3.02). In order to assess the significance of the effect of GLP-2 and Teduglutide paired t-tests were conducted on the Log [IC50] values.

“Also recorded” adds a separate entry of the source. Read-outs that look alike come from different tables or passages of the source.

Turning to `CC[C@H](C)[C@H](NC(=O)[C@H](Cc1ccccc1)NC(=O)[C@H](CC(=O)O)NC(=O)[C@H](CCCNC(=N)N)NC(=O)[C@H](C)NC(=O)[C@H](C)NC(=O)[C@H](CC(C)C)NC(=O)[C@H](CC(N)=O)NC(=O)[C@H](CC(=O)O)NC(=O)[C@H](CC(C)C)NC(=O)[C@@H](NC(=O)[C@@H](NC(=O)[C@H](CC(N)=O)NC(=O)[C@H](CCSC)NC(=O)[C@H](CCC(=O)O)NC(=O)[C@H](CC(=O)O)NC(=O)[C@H](CO)NC(=O)[C@H](Cc1ccccc1)NC(=O)[C@H](CO)NC(=O)CNC(=O)[C@H](CC(=O)O)NC(=O)[C@H](C)NC(=O)[C@@H](N)Cc1c[nH]cn1)[C@@H](C)O)[C@@H](C)CC)C(=O)N[C@@H](CC(N)=O)C(=O)N[C@@H](Cc1c[nH]c2ccccc12)C(=O)N[C@@H](CC(C)C)C(=O)N[C@H](C(=O)N[C@@H](CCC(N)=O)C(=O)N[C@H](C(=O)N[C@@H](CCCCN)C(=O)N[C@H](C(=O)N[C@H](C(=O)N[C@@H](CC(=O)O)C(=O)O)[C@@H](C)O)[C@@H](C)CC)[C@@H](C)O)[C@@H](C)CC` [GLP-2(1-33)], the “effect on spontaneous colon contractility” value (rat colon) is “inhibits spontaneous colon contractility in a concentration-dependent manner”.
Regarding `CC[C@H](C)[C@H](NC(=O)[C@H](Cc1ccccc1)NC(=O)[C@H](CC(=O)O)NC(=O)[C@H](CCCNC(=N)N)NC(=O)[C@H](C)NC(=O)[C@H](C)NC(=O)[C@H](CC(C)C)NC(=O)[C@H](CC(N)=O)NC(=O)[C@H](CC(=O)O)NC(=O)[C@H](CC(C)C)NC(=O)[C@@H](NC(=O)[C@@H](NC(=O)[C@H](CC(N)=O)NC(=O)[C@H](CCSC)NC(=O)[C@H](CCC(=O)O)NC(=O)[C@H](CC(=O)O)NC(=O)[C@H](CO)NC(=O)[C@H](Cc1ccccc1)NC(=O)[C@H](CO)NC(=O)CNC(=O)[C@H](CC(=O)O)NC(=O)CNC(=O)[C@@H](N)Cc1c[nH]cn1)[C@@H](C)O)[C@@H](C)CC)C(=O)N[C@@H](CC(N)=O)C(=O)N[C@@H](Cc1c[nH]c2ccccc12)C(=O)N[C@@H](CC(C)C)C(=O)N[C@H](C(=O)N[C@@H](CCC(N)=O)C(=O)N[C@H](C(=O)N[C@@H](CCCCN)C(=O)N[C@H](C(=O)N[C@H](C(=O)N[C@@H](CC(=O)O)C(=O)O)[C@@H](C)O)[C@@H](C)CC)[C@@H](C)O)[C@@H](C)CC` [Teduglutide, [gly2]GLP-2], the IC50 was 4.9 ± 1.9 nM (agonist alone, read-out: estimated IC50, inhibition of colon contractility); 34.7 ± 15.1 nM (pre-incubated with 1 μM GLP-2(3-33), read-out: estimated IC50, inhibition of colon contractility in the presence of GLP-2(3-33)); 59.9 ± 11.9 nM (pre-incubated with 10 μM GLP-2(3-33), read-out: estimated IC50, inhibition of colon contractility in the presence of GLP-2(3-33)). The “effect on spontaneous colon contractility” value (rat colon) is reported as “inhibited spontaneous colon contractility in a concentration-dependent manner”.
Regarding “GLP-2(3-33) (DGSFSDEMNTILDNLAARDFINWLIQTKITD; Glucagon-like peptide 2; UniProt P01275 148-178, looked up, fragment) [a GLP-2 antagonist/partial agonist]”, the “effect on GLP-2(1-33)-induced inhibition of colon contractility” value (rat colon, 1 μM and 10 μM test substance, agonist GLP-2(1-33)) is “blocked GLP-2(1-33)-induced inhibition of colon contractility; also recorded: blocked the inhibitory effects; also recorded: blocks the effect of GLP-2(1-33) in a concentration-dependent manner”. The “effect on teduglutide-induced inhibition of rat colon contractility” value (rat colon, 1 μM and 10 μM test substance, agonist teduglutide) is listed as “blocked teduglutide-induced inhibition of colon contractility; also recorded: blocked the inhibitory effects”. For the setting “rat colon”, the “effect on spontaneous colon contractility” value is “no effect alone”.

Usually IC50 stands for the concentration that inhibits the measured activity by half.

Source of the values: US7977061B2, “Ex vivo method for determining potential GLP-2 receptor modulators” (NPS Pharmaceuticals Inc., priority 2005, dated 2011).
